From article PMC8319832, “Fine-Tuning of Alkaline Residues on the Hydrophilic Face Provides a Non-toxic Cationic α-Helical Antimicrobial Peptide Against Antibiotic-Resistant ESKAPE Pathogens” (Frontiers in Microbiology, 2021)
Converted amounts (≈) assume the structure as drawn. Where a SMILES comes first, the peptide text is derived from it.

Legend:
S. aureus ATCC29213 = test: MIC, broth dilution; type: cell-based, Staphylococcus aureus
Experimental: (§1) All experiments were repeated at least three times.
(§2) To study the influence of physiological ions on the antimicrobial activities of the peptides, The MICs of the peptides were also determined against the standard bacterial strains cultured in MHB containing various salts at their physiological concentrations (150 mM NaCl, 4.5 mM KCl, 1 mM MgCl2, 2 mM CaCl2, 6 μM NH4HCO3, and 4 μM FeCl3) ([Ma et al., 2016]).

E. coli ATCC25922 = test: MIC, broth dilution; type: cell-based, Escherichia coli
S. aureus 1176 = test: MIC, broth dilution; type: cell-based, Staphylococcus aureus; settings: CLSI broth dilution, MHB, 37°C, 20 h, OD630, at least three repeats; clinical isolate
From the text: as §1

S. aureus 4188 = test: MIC, broth dilution; type: cell-based, Staphylococcus aureus; settings: CLSI broth dilution, MHB, 37°C, 20 h, OD630, at least three repeats; clinical isolate, penicillin-resistant
From the text: as §1

S. aureus 9124 = test: MIC, broth dilution; type: cell-based, Staphylococcus aureus; settings: CLSI broth dilution, MHB, 37°C, 20 h, OD630, at least three repeats; clinical isolate, MRSA
From the text: as §1

S. aureus ATCC 25923 = test: MIC, broth dilution; type: cell-based, Staphylococcus aureus; settings: CLSI broth dilution, MHB, 37°C, 20 h, OD630, at least three repeats; standard strain
From the text: as §1

E. faecium 898 = test: MIC, broth dilution; type: cell-based, Enterococcus faecium; settings: CLSI broth dilution, MHB, 37°C, 20 h, OD630, at least three repeats; clinical isolate
From the text: as §1

E. coli 2678 = test: MIC, broth dilution; type: cell-based, Escherichia coli; settings: CLSI broth dilution, MHB, 37°C, 20 h, OD630, at least three repeats; clinical isolate, ESBL
From the text: as §1

E. coli 2687 = test: MIC, broth dilution; type: cell-based, Escherichia coli; settings: CLSI broth dilution, MHB, 37°C, 20 h, OD630, at least three repeats; clinical isolate, ESBL
From the text: as §1

E. coli ATCC35218 = test: MIC, broth dilution; type: cell-based, Escherichia coli; settings: CLSI broth dilution, MHB, 37°C, 20 h, OD630, at least three repeats; standard strain
From the text: as §1

P. aeruginosa ATCC 27853 = test: MIC, broth dilution; type: cell-based, Pseudomonas aeruginosa
Experimental: as §1, §2

P. aeruginosa 9014 = test: MIC, broth dilution; type: cell-based, Pseudomonas aeruginosa; settings: CLSI broth dilution, MHB, 37°C, 20 h, OD630, at least three repeats; clinical isolate, CRE, MDR
From the text: as §1

P. aeruginosa 9042 = test: MIC, broth dilution; type: cell-based, Pseudomonas aeruginosa; settings: CLSI broth dilution, MHB, 37°C, 20 h, OD630, at least three repeats; clinical isolate
From the text: as §1

A. baumannii 13012 = test: MIC, broth dilution; type: cell-based, Acinetobacter baumannii; settings: CLSI broth dilution, MHB, 37°C, 20 h, OD630, at least three repeats; clinical isolate, CRE, MDR
From the text: as §1

A. baumannii 13079 = test: MIC, broth dilution; type: cell-based, Acinetobacter baumannii; settings: CLSI broth dilution, MHB, 37°C, 20 h, OD630, at least three repeats; clinical isolate, CRE, MDR
From the text: as §1

A. baumannii 9068 = test: MIC, broth dilution; type: cell-based, Acinetobacter baumannii; settings: CLSI broth dilution, MHB, 37°C, 20 h, OD630, at least three repeats; clinical isolate, CRE, MDR
From the text: as §1

A. baumannii 906 = test: MIC, broth dilution; type: cell-based, Acinetobacter baumannii; settings: CLSI broth dilution, MHB, 37°C, 20 h, OD630, at least three repeats; clinical isolate, CRE, MDR
From the text: as §1

[1] = system: K. pneumoniae ATCC 700603; test: MIC, broth dilution; type: cell-based, Klebsiella pneumoniae
Experimental: as §1, §2

K. pneumoniae 9126 = test: MIC, broth dilution; type: cell-based, Klebsiella pneumoniae; settings: CLSI broth dilution, MHB, 37°C, 20 h, OD630, at least three repeats; clinical isolate, CRE
From the text: as §1

[2] = system: human red blood cells (hRBCs); test: Hemolytic activity determination; type: cell-based; settings: peptide 100 μg ml^–1; hRBCs in 0.9% sodium chloride, 37°C, 1 h, OD540, 1% Triton X-100 = 100%; three independent experiments
Experimental: Fresh human red blood cells (hRBCs) were collected in a sterile borosilicate glass tube covered with sodium citrate as the anticoagulating agent. […] Two-fold dilutions of the peptides were prepared in 0.9% sodium chloride to 100 μl and mixed with equal volumn of hRBC suspension to final peptide concentrations ranging from 12.5 to 200 μg ml^–1. After co-incubation at 37°C for 1 h, the samples were centrifuged (2,000 × g, 4°C, 20 min), and the supernatant (100 μl) was taken for optical density (OD540) measurements (Asample). The hRBCs assayed with 0.9% sodium chloride (Ablank) or 1% Triton X-100 (Apositive) were applied as 0% and 100% hemolysis, respectively. Three independent experiments were performed and the percent hemolysis was calculated according to the following equation ([Yin et al., 2012]; [Li et al., 2016]):
Hemolysis(%)=100*(Asample-Ablank)/(Apositive-Ablank)

[3] = system: ESBL-producing E. coli, CRE- and MDR P. aeruginosa, CRE- and MDR A. baumannii; test: MIC, summary over resistant gram-negative strains; type: cell-based; settings: summary of Table 4
From the text: as §1

[4] = salt sensitivity test, MHB, control without addition of salt ions
[5] = CLSI broth dilution, MHB, 37°C, 20 h, OD630, at least three repeats, standard strain

Question: How did the MIC (S. aureus ATCC29213; MHB with 4 μM FeCl3) turn out when CC[C@H](C)[C@H](NC(=O)[C@H](CCCCN)NC(=O)[C@H](CCCCN)NC(=O)[C@@H](NC(=O)[C@@H](N)Cc1ccccc1)[C@@H](C)CC)C(=O)N[C@@H](C)C(=O)N[C@@H](CCCCN)C(=O)N[C@@H](CC(C)C)C(=O)N[C@@H](CC(C)C)C(=O)N[C@@H](CCCCN)C(=O)N[C@@H](CCCCN)C(=O)N[C@H](C(=O)N[C@@H](Cc1ccccc1)C(N)=O)[C@@H](C)CC [BmKn2-7K] (H-FIKKIAKLLKKIF-NH2) was run?
Answer: The MIC was 5 µg/mL (≈ 3.15 µM).

Question: What about the MIC (S. aureus ATCC29213; MHB with 6 μM NH4HCO3) of the same compound?
Answer: The MIC was 5 µg/mL (≈ 3.15 µM).

Question: And the MIC (S. aureus ATCC29213; MHB with 1 mM MgCl2)?
Answer: The MIC was 5 µg/mL (≈ 3.15 µM).

Question: And the MIC (S. aureus ATCC29213; MHB with 2 mM CaCl2)?
Answer: Its MIC is 5 µg/mL (≈ 3.15 µM).

Question: And the MIC (S. aureus ATCC29213; MHB with 4.5 mM KCl)?
Answer: The MIC was 5 µg/mL (≈ 3.15 µM).

Question: What about the MIC (S. aureus ATCC29213; MHB with 150 mM NaCl) of the same compound?
Answer: The MIC was 5 µg/mL (≈ 3.15 µM).

Question: And the MIC (S. aureus ATCC29213; [4])?
Answer: The MIC was 5 µg/mL.

Question: What about the MIC (E. coli ATCC25922; CLSI broth dilution, MHB, 6.25 × 10^5 cfu per ml, 37°C, 20 h, OD630, at least three repeats) of the same compound?
Answer: Its MIC is 5 µg/mL (≈ 3.15 µM).

Question: What about the MIC (E. coli ATCC25922; MHB with 4 μM FeCl3) of the same compound?
Answer: Its MIC is 20 µg/mL (≈ 12.6 µM).

Question: And the MIC (E. coli ATCC25922; MHB with 6 μM NH4HCO3)?
Answer: Its MIC is 20 µg/mL (≈ 12.6 µM).

Question: And the MIC (S. aureus 1176)?
Answer: Its MIC is 2.5 µg/mL (≈ 1.57 µM).

Question: And the MIC (S. aureus 4188)?
Answer: The MIC was 2.5 µg/mL (≈ 1.57 µM).

Question: What about the MIC (S. aureus 9124) of the same compound?
Answer: The MIC was 2.5 µg/mL (≈ 1.57 µM).

Question: What about the MIC (S. aureus ATCC 25923) of the same compound?
Answer: Its MIC is 5 µg/mL (≈ 3.15 µM).

Question: What about the MIC (E. faecium 898) of the same compound?
Answer: Its MIC is 5 µg/mL (≈ 3.15 µM).

Question: What about the MIC (E. coli 2678) of the same compound?
Answer: Its MIC is 10 µg/mL (≈ 6.29 µM).

Question: What about the MIC (E. coli 2687) of the same compound?
Answer: Its MIC is 10 µg/mL (≈ 6.29 µM).

Question: What about the MIC (E. coli ATCC35218) of the same compound?
Answer: The MIC was 10 µg/mL (≈ 6.29 µM).

Question: And the MIC (P. aeruginosa ATCC 27853; [5])?
Answer: The MIC was 5 µg/mL (≈ 3.15 µM).

Question: What about the MIC (P. aeruginosa ATCC 27853; MHB with 4 μM FeCl3) of the same compound?
Answer: The MIC was 20 µg/mL (≈ 12.6 µM).

Question: What about the MIC (P. aeruginosa ATCC 27853; MHB with 6 μM NH4HCO3) of the same compound?
Answer: The MIC was 20 µg/mL (≈ 12.6 µM).

Question: And the MIC (P. aeruginosa 9014)?
Answer: The MIC was 5 µg/mL (≈ 3.15 µM).

Question: What about the MIC (P. aeruginosa 9042) of the same compound?
Answer: The MIC was 5 µg/mL (≈ 3.15 µM).

Question: What about the MIC (A. baumannii 13012) of the same compound?
Answer: Its MIC is 2.5 µg/mL (≈ 1.57 µM).

Question: And the MIC (A. baumannii 13079)?
Answer: Its MIC is 2.5 µg/mL (≈ 1.57 µM).

Question: What about the MIC (A. baumannii 9068) of the same compound?
Answer: The MIC was 2.5 µg/mL (≈ 1.57 µM).

Question: And the MIC (A. baumannii 906)?
Answer: Its MIC is 2.5 µg/mL (≈ 1.57 µM).

Question: What about the MIC [1, 5] of the same compound?
Answer: The MIC was 10 µg/mL (≈ 6.29 µM).

Question: And the MIC ([1]; MHB with 4 μM FeCl3)?
Answer: The MIC was 10 µg/mL (≈ 6.29 µM).

Question: What about the MIC ([1]; MHB with 6 μM NH4HCO3) of the same compound?
Answer: The MIC was 10 µg/mL (≈ 6.29 µM).

Question: What about the MIC ([1]; MHB with 1 mM MgCl2) of the same compound?
Answer: The MIC was 10 µg/mL (≈ 6.29 µM).

Question: And the MIC ([1]; MHB with 2 mM CaCl2)?
Answer: The MIC was 10 µg/mL (≈ 6.29 µM).

Question: What about the MIC ([1]; MHB with 4.5 mM KCl) of the same compound?
Answer: Its MIC is 10 µg/mL (≈ 6.29 µM).

Question: And the MIC ([1]; MHB with 150 mM NaCl)?
Answer: Its MIC is 5 µg/mL (≈ 3.15 µM).

Question: What about the MIC [1, 4] of the same compound?
Answer: Its MIC is 10 µg/mL.

Question: And the MIC (K. pneumoniae 9126)?
Answer: Its MIC is 5 µg/mL (≈ 3.15 µM).

Question: And the “percent hRBC hemolysis” value [2]?
Answer: Its value is 12.2%.

Question: What about the “MIC against ESBL E. coli, CRE/MDR P. aeruginosa, CRE/MDR A. baumannii” value [3] of the same compound?
Answer: The value was 2.5–10 μg ml^–1.
